{"source": "patent US9388126B2", "about": "“Sigma receptor ligands and methods of modulating cellular protein homeostasis using same” (Drexel University, priority 2012, dated 2016)", "key": {"[1]": {"system": "MCF-7, T47D and MDA-MB-468 cells", "experiment": "Cell proliferation by Alamar blue reduction, breast adenocarcinoma cultures", "assay_type": "cell-based, human", "parameters": "anti-proliferative effect: dose or concentration left out as unconfirmed", "details": "for anti-proliferative effect: 4 days; for inhibition of cell proliferation: after 4 days of treatment, six drug concentrations", "from_the_text": "In vitro cell proliferation was quantitated by Alamar blue reduction. The anti-proliferative effects of six drug concentrations of the indicated drugs were quantitated after 4 days of treatment."}, "[2]": {"system": "MDA-MB-468 (GFP-LC3) cells", "experiment": "GFP-LC3 punctae (autophagosome formation) microscopy assay", "assay_type": "cell-based, human", "details": "for GFP-LC3 punctae per cell: drug concentrations up to 100 μM; for EC50: Homo sapiens, MDA-MB-468, 24 hours of treatment, read-out: potency (EC50±S.E.M.) of autophagosome formation (GFP-LC3 punctae); for concentration at which precipitous cell death occurred: following 24 hours of treatment", "experimental": "The human GFP-LC3 expression plasmid, pEGFP-LC3 (a gift from Drs. Grazia Ambrosini and Gary K. Schwartz, MSKCC), was stably transfected into MDA-MB-468 and selected with 0.5 mg/ml G418 sulfate. Stable populations were generated and compared to parental MDA-MB-468 for Sigma1 expression and autophagic and growth inhibitory response to Sigma ligands. GFP-LC3 translocation (punctae formation) was assessed by microscopy in MDA-MB-468 (GFP-LC3) stable cell populations. For microscopy-based experiments, cells were seeded onto Lab-Tek II glass chamber slides (Nalge Nunc International). […] Images of GFP-LC3 punctae were acquired with a Zeiss Axioplan 2 Imaging widefield microscope using Axiovision LE software. Punctae were counted using the spot quantitation program in the Fluoro-Chem software package (Alpha Innotech) and confirmed in parallel by manual counting. Autophagosome formation in MDAMB-468 (GFP-LC3) cells was quantitated as the mean number of GFP-LC3 punctae per GFP positive cell.\nInitially, an established immunoblot-based assay to detect microtubule associated protein light chain 3 (LC3) lipidation was used to test for the activation of autophagy. […] Since transient transfections can produce spurious GFP-LC3 aggregates, stable GFP-LC3 transfected populations of MDA-MB-468 (GFP-LC3) were generated. […]"}, "[3]": {"system": "MDA-MB-468 breast tumor cells", "experiment": "Akt, S6K and ERK phosphorylation immunoblots", "assay_type": "cell-based, human", "details": "10 μM, 24 hours", "experimental": "FIG. 40, comprising FIGS. 40A-40C, illustrates Sigma1 antagonist modulation of Akt, S6K, and ERK phosphorylation. MDA-MB-468 breast tumor cells were treated for 24 hours with 10 μM IPAG (Sigma1 antagonist) or (+)SKF-10047 (SKF, Sigma1 agonist). Treated cells were harvested and cellular proteins were extracted with a buffer containing 1% Sodium Dodecyl Sulfate (SDS) and deoxycholate (DOC), supplemented with phosphatase and protease inhibitors. FIG. 40A is an image of an immunoblot illustrating Akt phosphorylation. […] Akt phosphorylation at threonine 308 was not altered in any of the samples (not shown). Equivalent loading was confirmed with an anti-GAPDH antibody. FIG. 40B is an image of an immunoblot illustrating phosphorylation. Phosphorylation of mTOR substrate, p70S6K at threonine 389 decreased 3-fold in IPAG, but not SKF treated cells. Total p70S6K was immunoblotted as a loading control. FIG. 40C is an immunoblot illustrating that p44/42 ERK1/2phosphorylation at threonine 202 and tyrosine 204 was abrogated by 24 hour treatment with IPAG. Data shown is representative of two independent experiments."}, "[4]": {"system": "T47D and MDA-MB-468 cells", "experiment": "Cell cycle profile (G1, S, G2 phase cells)", "assay_type": "cell-based, human", "details": "24 hours; IPAG 1 μM (T47D) or 10 μM (MDA-MB-468); (+)-SKF-10047 10 μM", "experimental": "FIG. 30, comprising FIGS. 30A-30B, illustrates that Sigma1 antagonists mediate cell cycle arrest. […] FIG. 30A is a graph illustrating the percentage of G1, S, and G2 phase cells in T47D cells treated for 24 hours with DMSO (vehicle control), 1 μM IPAG (Sigma1 antagonist), or 10 μM (+)SKF-10047 (Sigma1 agonist). FIG. 30 B is a graph illustrating the percentage of G1, S, and G2 phase cells in MDA-MB-468 cells treated for 24 hours with DMSO (vehicle control), 10 μM IPAG (Sigma1 antagonist), or 10 μM (+)-SKF-10047 (Sigma1 agonist)."}, "[5]": {"system": "T-47D breast adenocarcinoma cells", "experiment": "Cell size by flow cytometry (mean FSC-H, G1 phase)", "assay_type": "cell-based, human", "details": "10 μM, 24 hours; control 412±5", "experimental": "FIG. 31A is a differential interference contrast (DIC) image of MDA-MB-468 breast adenocarcinoma cells treated for ˜20 hours with DMSO (drug vehicle control), 10 μM IPAG (antagonist) or 10 μM PRE084 (agonist). A twenty-micron bar is shown in each image. Data are presented as mean±SEM. FIG. 31B is a graph illustrating the finding that IPAG diminished the mean cell size (FSC-H) of MDA-MB-468 breast tumor cells in a time-responsive manner. The mean FSC-H of 370±5 at to decreased to 323±4 after 24 hours of IPAG treatment and to 267±2 after 48 hours of treatment. Two-tailed t-tests were performed to determine statistical significance. For IPAG treatment compared to control (DMSO) and Sigma agonists (SKF and PRE084), P=0.0002 at d1 and P=0.00013 at d2. Data were generated from three to five independent determinations for each time-point. Flow cytometry was used to measure mean cell size (mean FSC-H) of T-47D breast adenocarcinoma cells. FIG. 31C is a bar graph illustrating T-47D cells treated for 24 hours with 10 μM indicated Sigma ligand. IPAG and BD 1047 (Sigma1 antagonists) diminished cell size from a mean FSC-H of 412±5 for control (DMSO) cells versus 341±7 and 381±8 for IPAG and BD1047 treated cells, respectively. […] Data represent 5 independent determinations (*P<0.05, ***P<0.001). FIG. 31D is a bar graph illustrating how IPAG (antagonist) decreases cell size in a dose responsive manner. T-47D were treated for 24 h with 1 and 10 μM IPAG, and mean FSC-H was measured. FIG. 31E is a graph illustrating that T47D cell size decreases over time. T-47D cells were treated for a total of 48 hours with 10 μM of the indicated Sigma ligands. […] Neither Sigma1 agonist, (+)-SKF10047 and PRE084, altered cell size. […] Two-tailed t-tests were performed to determine statistical significance. For IPAG treatment compared to control (DMSO) and Sigma1 agonists (SKF and PRE084), P=0.0002 at d1 and P<0.0001 at d2. For FIGS. 31B-31E, the mean FSC-H was determined for each cell cycle population (i.e., G1, S, G2/M), and data is shown for G1 phase cells. S and G2/M phase cells responded similarly (data not shown)."}, "[6]": {"system": "MDA-MB-468 cells", "experiment": "Cell death by trypan blue exclusion", "assay_type": "cell-based, human", "details": "3-MA alone (5 mM), 24 hours", "experimental": "Trypan blue exclusion and propidium iodide staining were used to quantify general cell death and the presence of apoptotic cell death was confirmed by immunoblot. The percentage of dead cells in a given population was determined by quantifying the number of trypan blue positive (dead) cells and dividing by the total number of trypan blue positive and negative cells."}, "[7]": {"system": "MDA-MB-468 breast adenocarcinoma cells", "experiment": "LC3 lipidation (LC3II) immunoblot", "assay_type": "cell-based, human", "details": "10 μM, 24 hours", "experimental": "Cells were lysed and proteins extracted in a modified RIPA buffer (25 mM Tris-HCl pH 7.6, 150 mM NaCl, 1% NP-40, 1% sodium deoxycholate and 0.1% SDS) supplemented with 10% glycerol (volume/volume), complete protease inhibitor cocktail (Roche), and Halt phosphatase inhibitor cocktail (Pierce). Approximately 10-20 μg of detergent soluble protein were resolved on NOVEX 10-20% polyacrylamide Tris-glycine gels (InVitrogen). Immunoblots were performed in a 20 mM Tris-buffered 137 mM saline solution (pH 7.6) containing 0.1% Tween-20 (polyoxyethylene (20) sorbitan monolaurate) and 5% (weight/volume) blotting grade non-fat dry milk (BioRad). The Lumigen PS-3 enhanced chemiluminescence kit (GE Healthcare) was used to reveal immunoblotted proteins.\nInitially, an established immunoblot-based assay to detect microtubule associated protein light chain 3 (LC3) lipidation was used to test for the activation of autophagy. […] Since transient transfections can produce spurious GFP-LC3 aggregates, stable GFP-LC3 transfected populations of MDA-MB-468 (GFP-LC3) were generated. These cells were treated for 24 hours with increasing concentrations of Sigma receptor antagonists and agonists, and were compared to basal and DMSO treated controls (FIGS. 4B & 4C)."}, "[8]": {"system": "MCF7 tumor xenograft", "experiment": "MCF7 tumor xenograft, tamoxifen potentiation by rimcazole", "assay_type": "in vivo, athymic mice", "details": "for inhibition of tumor growth: after 11 days of daily i.p. treatment, tamoxifen 1 mg/kg, Rimcazole 10 mg/kg, each alone", "experimental": "Preliminary tumor xenograft experiments were performed according to MSKCC Tumor Assessment Core facility protocol. Briefly, β-estradiol treated athymic mice were injected with MCF7 cells, and drug treatment was initiated when mean tumor volume reached approximately 140 mm^3, which occurred 17 days following MCF-7 injection. Daily i.p. drug injections were performed for up to 11 days, and tumor volume was quantified by the formula: tumor volume=L×W^2×π/6. In this pilot experiment, 3-5 mice were tested per group. […] An extended time course, with more mice per group and multiple drug doses, may be performed to determine whether the tumor growth inhibitory effect of combined drug treatment is additive or synergistic."}}}
{"smiles": "C=CCN1CC[C@]2(C)c3cc(O)ccc3C[C@H]1[C@H]2C", "note": "(relative stereo) [(+)-SKF10047, [2S-(2α,6α,11R*]-1,2,3,4,5,6-hexahydro-6,11-dimethyl-3-(2-propenyl)-2,6-methano-3-benzazocin-8-ol]", "values": [{"measurement": "anti-proliferative effect", "setting": "[1]", "value": "ineffective"}, {"measurement": "GFP-LC3 punctae per cell", "setting": "[2]; 24 hours", "value": "≤ 5±1", "unit": "punctae per cell"}, {"measurement": "decrease of Akt phosphorylation at serine 473", "setting": "[3]", "value": "did not alter Akt phosphorylation"}, {"measurement": "cell cycle profile", "setting": "[4]", "value": "did not present significant difference in cell cycle profile"}, {"measurement": "mean FSC-H (relative cell size)", "setting": "[5]", "value": "did not alter cell size"}]}
{"smiles": "CC(C)=CCN1CC[C@]2(C)c3cc(O)ccc3C[C@H]1[C@H]2C", "note": "(relative stereo) [(+)-pentazocine, (+)-[2S-(2,6,11R*)]-1,2,3,4,5,6-hexahydro-6,1-dimethyl-3-(3-methyl-2-butenyl)-2,6-methano-3-benzazocin-8-ol]", "values": [{"measurement": "anti-proliferative effect", "setting": "[1]", "value": "ineffective"}, {"measurement": "GFP-LC3 punctae per cell", "setting": "[2]; 24 hours", "value": "≤ 6±1", "unit": "punctae per cell"}]}
{"smiles": "CN(C)CCN(C)CCc1ccc(Cl)c(Cl)c1", "note": "[BD1047, N′-[2-(3,4-dichlorophenyl)ethyl]-N,N,N′-trimethylethane-1,2-diamine]", "values": [{"measurement": "inhibition of cell proliferation", "setting": "[1]", "value": "also inhibited cell proliferation"}, {"measurement": "mean FSC-H (relative cell size)", "setting": "[5]", "value": "381±8"}]}
{"smiles": "CN1CCN(CCc2ccc(Cl)c(Cl)c2)CC1", "note": "[BD1063, 1-[2-(3,4-dichlorophenyl)ethyl]-4-methylpiperazine]", "values": [{"measurement": "inhibition of cell proliferation", "setting": "[1]", "value": "also inhibited cell proliferation"}]}
{"smiles": "Cn1cnc(N)c2ncnc1-2", "note": "[Compound 3-MA, 3-methyladenine]", "values": [{"measurement": "punctae per cell", "setting": "[2]; 5 mM 3-MA alone, 24 hours", "value": "5±1", "unit": "punctae per cell"}, {"measurement": "dead cells per well", "setting": "[6]", "value": "6±2", "unit": "%"}]}
{"smiles": "COc1cccc2c1CCCC2CCCN1CCN(C2CCCCC2)CC1", "note": "(centres unmarked) [PB28, 1-cyclohexyl-4-[3-(5-methoxy-1,2,3,4-tetra-hydronaphthalen-1-yl)propyl]piperazine]", "values": [{"measurement": "EC50", "setting": "[2]", "value": "52 ± 9", "unit": "µM"}, {"measurement": "concentration at which precipitous cell death occurred", "setting": "[2]", "value": 100, "unit": "µM"}, {"measurement": "conversion of LC3 to LC3II (autophagosome formation)", "setting": "[7]", "value": "converted LC3 to LC3II"}]}
{"smiles": "C[C@@H]1CN(CCCn2c3ccccc3c3ccccc32)C[C@H](C)N1", "note": "[rimcazole, 9-{3-[(3R,5S)-3,5-dimethylpiperazin-1-yl]propyl}-9H-carbazole]", "values": [{"measurement": "inhibition of tumor growth", "setting": "[8]", "value": "approximately 50%"}, {"measurement": "tumor growth", "setting": "[8]; tamoxifen (1 mg/kg) and Rimcazole (10 mg/kg) combined, 11 day time course", "value": "completely inhibited"}, {"measurement": "inhibition of cell proliferation", "setting": "[1]", "value": "inhibited cell proliferation with comparable potencies in all cell lines"}, {"measurement": "EC50", "setting": "[2]", "value": "50 ± 8", "unit": "µM"}, {"measurement": "concentration at which precipitous cell death occurred", "setting": "[2]", "value": 100, "unit": "µM"}, {"measurement": "conversion of LC3 to LC3II (autophagosome formation)", "setting": "[7]", "value": "converted LC3 to LC3II"}]}
{"smiles": "CC/C(=C(\\c1ccccc1)c1ccc(OCCN(C)C)cc1)c1ccccc1", "note": "[tamoxifen, (Z)-2-[4-(1,2-diphenylbut-1-enyl)phenoxy]-N,N-dimethylethanamine]", "values": [{"measurement": "inhibition of tumor growth", "setting": "[8]", "value": "approximately 50%"}, {"measurement": "inhibition of cell proliferation", "setting": "[1]", "value": "inhibited cell proliferation with similar potencies"}]}
